According to patent US9734283B2, “Genomic features associated with epigenetic control regions and transgenerational inheritance of epimutations” (priority 2011, dated 2017):

Columns and labels:
129 and CD-1 mice = test: Litter size, sex ratio, body and tissue weights (toxicity); assay type: in vivo, mouse; settings: transient embryonic exposure
Method: The experimental design involved exposing gestating female inbred 129 strain and outbred CD-1 strain mice to daily intraperitoneal (IP) injections of vehicle (DMSO) (control) or vinclozolin at two doses, 100 mg/kg/day (V1) or 200 mg/kg/day (V2), between embryonic day 7-13 of gestation. In addition, a comparison was used with flutamide IP injections at a 20/mg/kg/day dose. The F1 generation males and females from different litters were bred to generate the F2 generation animals and F2 generation males and females from different litters were bred to generate the F3 generation animals, see Methods below. No sibling or cousin breedings occurred to avoid any inbreeding artifacts. Selected F1, F2 and F3 generation animals from postnatal 90 (P90) or 300 (P300) days of age were analyzed for testis, sperm and other pathologies as previously described.^11, 20, 21
Timed pregnant inbred 129 mice were given intraperitoneal injections with vinclozolin (100 mg/kg·day, 99% pure; ChemService, West Chester, Pa.), flutamide (20 mg/kg·day, Sigma, St. Louis, Mo.) or DMSO in sesame oil (vehicle) as controls, while timed pregnant outbred CD-1 mice were given intraperitoneal injections (IP) with vinclozolin doses: 100 mg/kg·day (V1) or 200 mg/kg·day (V2) or DMSO in sesame oil as controls.^21 Mice were given injections from embryonic day (E) E7-E13, with plug date equal to day 0. Controls were injected with vehicle (DMSO) dose and were matched with vinclozolin or flutamide treatment animals within the same mouse strain at the time of injection and were analyzed together throughout all three generations. The number of treated gestating females used were: for mouse 129 strain (3 controls and 4 vinclozolin treated); for mouse 129 strain flutamide 20 mg/kg/day dose (3 controls and 3 flutamide treated); and for mouse CD-1 strain (4 control and 3 vinclozolin treated (100 mg/kg/day (V1), 3 vinclozolin 200 mg/kg/day (V2)). F1 postnatal (P)P90 males and females from different litters of control, vinclozolin and flutamide treatment groups were bred to generate the F2 generation. F2 generation mice were bred to generate the F3 generation. Breedings were carefully monitored to eliminate any sibling or cousin breeding to remove potential phenotypes as a result of inbreeding. Male mice were collected and analyzed between P60-P90 (P90) for all generations and treatment groups. The number of P90 males collected for replicates for the mouse 129 strain vinclozolin treatment group (i.e. n value) were: for F1 (8 control, 11 vinclozolin); for F2 (11 control, 22 vinclozolin); and for F3 (11 control, 11 vinclozolin). […]

[1] = tested on: sperm promoter epigenome (DNA methylation); test: MeDIP-Chip with Affymetrix mouse promoter tiling arrays; assay type: in vivo; settings: duplicate arrays, no direct comparative hybridization; none confirmed by bisulfite PCR and mass spectrometry
Excerpt: Affymetrics' GeneChip® Mouse Promoter 1.0R Array was used, which contains 4.6 million probes tiled that interrogate nearly 28,000 mouse promoter regions. These probes are 25-mer and tiled at an average resolution of 35 bp with gaps of approximately 10 bp between probes. Each promoter region covers approximately 6 kb upstream through 2.5 kb downstream of 5′ transcription start sites. A total of 6 arrays were used, one each for C1, C2, V1 and V2, one for C1+C2 and another for their DNA inputs, InpC1+InpC2.

For `C=CC1(C)OC(=O)N(c2cc(Cl)cc(Cl)c2)C1=O` (racemic) [vinclozolin, (RS)-3-(3,5-dichlorophenyl)-5-methyl-5-vinyl-1,3-oxazolidine-2,4-dione], which “body weight, testis weight index, or kidney weight index” value (129 and CD-1 mice; F1-F3) is on record?
Its value is “no consistent transgenerational differences”.

And the “litter size or male/female sex ratio” value (129 and CD-1 mice; all generations analyzed)?
The value was “no consistent transgenerational effects”.

And the “number of differential methylation regions identified with Affymetrix tiling arrays” value [1]?
Its value is “seven”.
